Laboratory results as given in ChEMBL document CHEMBL5674860, “Optimized Dual-Glo Assay to identify co-culture-induced drug vulnerabilities in 3D CRC models” (2024).

Legend:
Assay type in all cases: functional, Homo sapiens
Parameters in all cases: dose or concentration left out as unconfirmed
[1] = test system: Colon cancer organoid; experiment: Optimized Dual-Glo assay to identify co-culture induced drug vulnerabilities using donated chemical probes and chemogenomics kinase set in O06 CRC organoid and F06 CAF mono and co-culture. […] Cell viability is reported both mono and co-culture models.
[2] = test system: Colon cancer organoid; experiment: Optimized Dual-Glo assay to identify co-culture induced drug vulnerabilities using donated chemical probes and chemogenomics kinase set in O20 CRC organoid and F20 CAF mono and co-culture. […] Cell viability is reported both mono and co-culture models.
[3] = test system: Colon cancer organoid; experiment: Optimized Dual-Glo assay to identify co-culture induced drug vulnerabilities using donated chemical probes and chemogenomics kinase set in O14 CRC organoid and F14 CAF mono and co-culture. […] Cell viability is reported both mono and co-culture models.
[4] = Culture type Co-Culture, Transduced with Lucferase2-P2A-EGFP lentivirus
[5] = Culture type Co-Culture, Transduced with Renilla-dsRed lentivirus
[6] = Culture type Mono-Culture, Transduced with Lucferase2-P2A-EGFP lentivirus
[7] = Culture type Mono-Culture, Transduced with Renilla-dsRed lentivirus

Structure (SMILES) | Cell Viability [1, 4] [%] | Cell Viability [1, 5] [%] | Cell Viability [1, 6] [%] | Cell Viability [1, 7] [%] | Cell Viability [2, 4] [%] | Cell Viability [2, 5] [%] | Cell Viability [2, 6] [%] | Cell Viability [2, 7] [%] | Cell Viability [3, 4] [%] | Cell Viability [3, 5] [%] | Cell Viability [3, 6] [%] | Cell Viability [3, 7] [%]
CCCCN(Cc1ccccc1)C(=O)c1ccc(S(=O)(=O)Nc2ccccc2)cc1 | 64.4698 | 76.2121 | 99.0346 | 112.912 | 74.981 | 116.955 | 117.076 | 107.638 | 108.863 | 102.946 | 107.066 | 103.133
COc1ccc(COc2ccc(Cc3cnc(N)nc3N)cc2OC)cc1 [GW632580X] | 84.8428 | 83.7807 | 109.175 | 109.596 | 200.024 | 84.9331 | 115.095 | 88.8877 | 102.637 | 115.835 | 144.397 | 94.931
c1ccc2oc(-c3csc(C4CCN(Cc5nc6ncccc6[nH]5)CC4)n3)cc2c1 | 118.221 | 124.83 | 91.0093 | 102.554 | 55.8408 | 105.216 | 98.8646 | 99.5308 | 119.834 | 111.13 | 91.6979 | 94.4275
CC(=O)Nc1nc(CN2CCC[C@H](Cc3cc(C)nc(C)c3)C2)cs1 [JNJ-73924149] | 110.779 | 72.9092 | 164.947 | 124.842 | 90.3874 | 105.251 | 100.726 | 118.221 | 81.3438 | 100.385 | 108.387 | 92.0646
O=C(O)c1ccc2c(c1)nc(Nc1cccc(Cl)c1)c1ccncc12 [SILMITASERTIB] | 108.166 | 80.6873 | 78.7074 | 100.788 | 158.738 | 81.7658 | 95.6239 | 79.8512 | 93.7278 | 109.514 | 89.7197 | 119.06
CNC(=O)c1cc(C(=O)NC2CC2)cn(Cc2ccccc2)c1=O [GSK620] | 111.223 | 132.009 | 81.6367 | 131.621 | 92.6025 | 100.747 | 72.9667 | 110.848 | 179.546 | 145.239 | 105.323 | 134
Cc1cc(CN)cc(C)c1-c1ncn(C)c1-c1cncn1C | 121.461 | 141.638 | 159.088 | 144.43 | 127.582 | 117.48 | 113.288 | 98.6435 | 82.5441 | 115.965 | 119.104 | 86.3829
CC[C@@H]1C(=O)N(C)c2cnc(Nc3ccc(C(=O)NC4CCN(C)CC4)cc3OC)nc2N1C1CCCC1 [BI-2536] | 3.341 | 324.743 | 5.694 | 205.81 | 3.7112 | 168.723 | 5.1365 | 106.916 | 6.08 | 320.789 | 25.6478 | 192.03
C[C@H](NC(=O)c1cnc2n1[C@](C)(Cc1ccc(C#N)cc1)C(=O)N2c1cc(Cl)c(F)c(Cl)c1)C(=O)NC1(c2ccccn2)CC1 [BI 1950] | 123.241 | 151.567 | 111.279 | 104.666 | 121.807 | 97.0159 | 112.646 | 94.255 | 114.581 | 100.802 | 131.753 | 112.137
